Data: paper PMC11189516, “Structure-guided conversion from an anaplastic lymphoma kinase inhibitor into Plasmodium lysyl-tRNA synthetase selective inhibitors” (Communications Biology, 2024)
“And” between values parts separate entries of the source, which are not always exact repeats. Equal values may be shown once.

Assays:
HepG2 cells = assay: Cytotoxicity assay (CCK-8); format: cell-based, human; settings: HepG2, 72 h
Experimental: (§1) HepG2 cells (National Collection of Authenticated Cell Cultures) were cultured in Minimum Essential Medium (Gibco) supplemented with 10% of fetal bovine serum, 100 U·mL^−1 penicillin, 100 U·mL^−1 streptomycin (Gibco), 2 mM L-Glutamine (Gibco), 1× NEAA (Gibco) and 1 mM Sodium Pyruvate (Gibco). The cells were hemi-depleted each week with fresh medium and maintained at 1 ~ 2 × 10^6 cells/mL in 6-cm dishes at 37 °C and 5% CO2. Tested with MycoBlue Mycoplasma Detector D101 (Vazyme), the cells were free from mycoplasma contamination.
(§2) Cell viability was analyzed by Cell Counting Kit-8 (CCK8, ApexBio) according to the manufacturer’s protocols. Cells were seeded and cultured at a density of 2.5 × 10^3 cells per well in 100 μL medium in 96-well microplates (Corning). Then, the cells were treated with different concentrations of compound (0, 1 μM, 3 μM, 10 μM, 100 μM, 300 μM). […] After treatment for 72 h, 10 μL of CCK-8 reagent was added to each well and then cultured for 4 h. All experiments were performed in pentaplicate. The absorbance was analyzed at 450 nm using a microplate reader (Tecan) using medium without cells as blanks. Data was processed using GraphPad Prism 9.

[1] = system: erythrocytic-stage P. falciparum 3D7 parasites; assay: In vitro Plasmodium growth assay; format: cell-based, Plasmodium falciparum; settings: for HillSlope (best-fit value): Plasmodium falciparum 3D7; for LogIC50 (best-fit value): Plasmodium falciparum 3D7, log of nM; for IC50: Plasmodium falciparum 3D7, source data, read-out: IC50 (best-fit value); for EC50: Plasmodium falciparum, 3D7, 72 h
Experimental: Parasites were cultured in human O+ erythrocytes according to standard procedures. To prepare the >80% ring stage parasites, asynchronous cultures of parasites were pretreated with 5% sorbitol, and P. falciparum strain 3D7 at the mid-ring stage (6–10 h post-invasion) was used to test antimalarial effects in 96-well plates. Parasites were incubated in a 96-well plate with compound containing 1% parasitemia and, 2% hematocrit for a total volume of 200 μL. […] A relevant DMSO concentration was used as a negative control, and cultured erythrocytes without Plasmodium served as a positive control. The parasites were allowed to grow for 72 h at 37 °C with 5% CO2, 5% O2, and 90% N2. After 72 h, 100 μL of lysis buffer (0.12 mg·mL^−1 Saponin, 0.12% Triton X-100, 30 mM Tris-HCl pH 8.0, and 7.5 mM EDTA) with 5× SYBR Green I (Invitrogen; supplied in 10000× concentration) was added to each well of the plate. The plates were then incubated for 2 h in the dark prior to reading the fluorescence signal at 485 nm excitation and 535 nm emission. The percentage of inhibition was calculated by (NC-fluorescence) × 100/(NC-PC).

[2] = Cytotoxicity assay (CCK-8); format: cell-based, human; settings: human, HepG2 cells; HepG2, 72 h
Experimental: as §1, §2

[3] = P. falciparum 3D7, Log(Concentration)/nM 2.290, single repeats
[4] = P. falciparum 3D7, Log(Concentration)/nM 2.592, single repeats
[5] = P. falciparum 3D7, Log(Concentration)/nM 2.893, single repeats
[6] = P. falciparum 3D7, Log(Concentration)/nM 3.193, single repeats
[7] = P. falciparum 3D7, Log(Concentration)/nM 3.496, single repeats
[8] = P. falciparum 3D7, Log(Concentration)/nM 3.796, single repeats
[9] = P. falciparum 3D7, Log(Concentration)/nM 4.097, single repeats
[10] = P. falciparum 3D7, Log(Concentration)/nM 4.398, single repeats
[11] = P. falciparum 3D7, Log(Concentration)/nM 4.699, single repeats
[12] = P. falciparum 3D7, Log(Concentration)/nM 5.000, single repeats

Row | SMILES | cytotoxicity to HepG2 (HepG2 cells) | % Inhibition [1, 3] | % Inhibition [1, 4] | % Inhibition [1, 5] | % Inhibition [1, 6] | % Inhibition [1, 7] | % Inhibition [1, 8] | % Inhibition [1, 9] | % Inhibition [1, 10] | % Inhibition [1, 11] | % Inhibition [1, 12] | HillSlope (best-fit value) [1] | LogIC50 (best-fit value) [1] | IC50 [1] | EC50 [1] | CC50 at 72 h [2]
1 | COc1ccc(OC)c(Nc2ncnc(Nc3ccccc3S(=O)(=O)C(C)C)n2)c1 [Compound 36] | no significant toxicity | -1.297% and 4.596% and -3.299% | 14.49% and 16.27% and 6.82% | 56.52% and 50.3% and 49.85% | 89.44% and 83.77% and 86.88% | 95.44% and 97.78% and 98.22% | 97.55% and 97.66% and 100.2% | 99.56% and 100.2% and 100.1% | 98.55% and 100.8% and 100.2% | 98.67% and 100.8% and 100.6% | 90.1% and 96% and 96.11% | 2.726 | 2.867 | 0.736 µM | 0.736 µM | 
2 | COc1ccccc1Nc1ncnc(Nc2ccccc2S(=O)(=O)C(C)C)n1 [Compound 38] |  | 0.5244% and -0.5244% | 0.1049% and 1.993% | 5.139% and 2.098% | 11.12% and 9.229% | 30.2% and 31.57% | 64.29% and 65.65% | 93.45% and 91.87% | 99.84% and 98.9% | 100.4% and 99.63% | 98.16% and 95.65% | 2.23 | 3.663 | 4.61 µM | 4.61 ± 0.12 µM | 7.7 µM
